Assay results taken from US20230399324A1, “AGENTS FOR TREATING DISORDERS INVOLVING RYANODINE RECEPTORS” (ARMGO Pharma, Inc., priority 2020, published 2023).
pEC50: −log10 of the molar value. Several values for one entry are separate records, joined by “and”; a condition that tells them apart may be missing. Equal values may be shown once. Entries after “also recorded” stand apart in the source; their conditions may differ. Read-outs that look alike come from different tables or passages of the source. Values belong to the molecule of their own block, whether it stands above or below them.

Columns and labels:
[1] = system: cardiomyocytes isolated from mouse heart; experiment: Inhibition of unstimulated calcium release events in cardiomyocytes (isoproterenol-induced); format: cell-based, C57BL/6 mice; details: Cardiomyocyte, 10 μM compound, isoproterenol 1 uM, percent inhibition of controls B vs A
Protocol: Compounds of the disclosure were evaluated for an effect on isoproterenol-induced inhibition of unstimulated calcium release events in cardiomyocytes isolated from mouse heart.
Adult cardiomyocytes are isolated from female, 28-32 grams C57BL/6 mice using a perfusion solution containing Liberase TH (Sigma Aldrich, #05-401-151001). After isolation, Ca^2+ is reintroduced in 5 steps at 4 min intervals. Then cells are plating (Time Cero) with a density of 5000-7000 rod cells in 100 μl of Cardiomyocyte Culture Medium (MEM, Invitrogen, #11575-032) containing Blebbistatin and compound treatment at various concentrations (0.01 to 10 uM). After 1 hrs of compound treatment cells are treated with Isoproterenol (1 uM). After 2 hrs of compound treatment cells are loaded with a Ca^2+ indicator (Fluo-4-AM, Invitrogen #F14202). After 3 hrs of compound treatment MEM is quickly but gently removed and the cells re-suspended in recording solution (Ca^2+ 2 mM, Isoproterenol 1 uM) for field stimulations using custom-designed electrodes. Cells are stimulated for 20 seconds at 0.5 Hz, then for 5 seconds at 5 Hz.
One Study=3 experiments. One experiment=1 mouse. Each experiment has 3 controls in triplicate: • A) Ca^2+ • B) Ca^2++Isoproterenol • C) Ca^2++Isoproterenol+Control Compound.
The first step in the analysis is to determine the number of responders based on four conditions. Responders are then analyzed to determine the number of unstimulated calcium release events, which are peaks of sufficient intensity, measured in the post-5 Hz stimulation period. Effect of test compounds (Ca^2++Isoproterenol+Test Compound in triplicate) are expressed as a percent inhibition of the controls B vs A.
All compounds were tested at 10 μM.

RyR2 [2] = biological target: T1, RyR2 (Homo sapiens, UniProt Q92736); experiment: 35S-labelled Calstabin2 binding to human HD cortex microsomes, dose curve; details: FIG. 2
Target sequence in this assay (Q92736 whole entry): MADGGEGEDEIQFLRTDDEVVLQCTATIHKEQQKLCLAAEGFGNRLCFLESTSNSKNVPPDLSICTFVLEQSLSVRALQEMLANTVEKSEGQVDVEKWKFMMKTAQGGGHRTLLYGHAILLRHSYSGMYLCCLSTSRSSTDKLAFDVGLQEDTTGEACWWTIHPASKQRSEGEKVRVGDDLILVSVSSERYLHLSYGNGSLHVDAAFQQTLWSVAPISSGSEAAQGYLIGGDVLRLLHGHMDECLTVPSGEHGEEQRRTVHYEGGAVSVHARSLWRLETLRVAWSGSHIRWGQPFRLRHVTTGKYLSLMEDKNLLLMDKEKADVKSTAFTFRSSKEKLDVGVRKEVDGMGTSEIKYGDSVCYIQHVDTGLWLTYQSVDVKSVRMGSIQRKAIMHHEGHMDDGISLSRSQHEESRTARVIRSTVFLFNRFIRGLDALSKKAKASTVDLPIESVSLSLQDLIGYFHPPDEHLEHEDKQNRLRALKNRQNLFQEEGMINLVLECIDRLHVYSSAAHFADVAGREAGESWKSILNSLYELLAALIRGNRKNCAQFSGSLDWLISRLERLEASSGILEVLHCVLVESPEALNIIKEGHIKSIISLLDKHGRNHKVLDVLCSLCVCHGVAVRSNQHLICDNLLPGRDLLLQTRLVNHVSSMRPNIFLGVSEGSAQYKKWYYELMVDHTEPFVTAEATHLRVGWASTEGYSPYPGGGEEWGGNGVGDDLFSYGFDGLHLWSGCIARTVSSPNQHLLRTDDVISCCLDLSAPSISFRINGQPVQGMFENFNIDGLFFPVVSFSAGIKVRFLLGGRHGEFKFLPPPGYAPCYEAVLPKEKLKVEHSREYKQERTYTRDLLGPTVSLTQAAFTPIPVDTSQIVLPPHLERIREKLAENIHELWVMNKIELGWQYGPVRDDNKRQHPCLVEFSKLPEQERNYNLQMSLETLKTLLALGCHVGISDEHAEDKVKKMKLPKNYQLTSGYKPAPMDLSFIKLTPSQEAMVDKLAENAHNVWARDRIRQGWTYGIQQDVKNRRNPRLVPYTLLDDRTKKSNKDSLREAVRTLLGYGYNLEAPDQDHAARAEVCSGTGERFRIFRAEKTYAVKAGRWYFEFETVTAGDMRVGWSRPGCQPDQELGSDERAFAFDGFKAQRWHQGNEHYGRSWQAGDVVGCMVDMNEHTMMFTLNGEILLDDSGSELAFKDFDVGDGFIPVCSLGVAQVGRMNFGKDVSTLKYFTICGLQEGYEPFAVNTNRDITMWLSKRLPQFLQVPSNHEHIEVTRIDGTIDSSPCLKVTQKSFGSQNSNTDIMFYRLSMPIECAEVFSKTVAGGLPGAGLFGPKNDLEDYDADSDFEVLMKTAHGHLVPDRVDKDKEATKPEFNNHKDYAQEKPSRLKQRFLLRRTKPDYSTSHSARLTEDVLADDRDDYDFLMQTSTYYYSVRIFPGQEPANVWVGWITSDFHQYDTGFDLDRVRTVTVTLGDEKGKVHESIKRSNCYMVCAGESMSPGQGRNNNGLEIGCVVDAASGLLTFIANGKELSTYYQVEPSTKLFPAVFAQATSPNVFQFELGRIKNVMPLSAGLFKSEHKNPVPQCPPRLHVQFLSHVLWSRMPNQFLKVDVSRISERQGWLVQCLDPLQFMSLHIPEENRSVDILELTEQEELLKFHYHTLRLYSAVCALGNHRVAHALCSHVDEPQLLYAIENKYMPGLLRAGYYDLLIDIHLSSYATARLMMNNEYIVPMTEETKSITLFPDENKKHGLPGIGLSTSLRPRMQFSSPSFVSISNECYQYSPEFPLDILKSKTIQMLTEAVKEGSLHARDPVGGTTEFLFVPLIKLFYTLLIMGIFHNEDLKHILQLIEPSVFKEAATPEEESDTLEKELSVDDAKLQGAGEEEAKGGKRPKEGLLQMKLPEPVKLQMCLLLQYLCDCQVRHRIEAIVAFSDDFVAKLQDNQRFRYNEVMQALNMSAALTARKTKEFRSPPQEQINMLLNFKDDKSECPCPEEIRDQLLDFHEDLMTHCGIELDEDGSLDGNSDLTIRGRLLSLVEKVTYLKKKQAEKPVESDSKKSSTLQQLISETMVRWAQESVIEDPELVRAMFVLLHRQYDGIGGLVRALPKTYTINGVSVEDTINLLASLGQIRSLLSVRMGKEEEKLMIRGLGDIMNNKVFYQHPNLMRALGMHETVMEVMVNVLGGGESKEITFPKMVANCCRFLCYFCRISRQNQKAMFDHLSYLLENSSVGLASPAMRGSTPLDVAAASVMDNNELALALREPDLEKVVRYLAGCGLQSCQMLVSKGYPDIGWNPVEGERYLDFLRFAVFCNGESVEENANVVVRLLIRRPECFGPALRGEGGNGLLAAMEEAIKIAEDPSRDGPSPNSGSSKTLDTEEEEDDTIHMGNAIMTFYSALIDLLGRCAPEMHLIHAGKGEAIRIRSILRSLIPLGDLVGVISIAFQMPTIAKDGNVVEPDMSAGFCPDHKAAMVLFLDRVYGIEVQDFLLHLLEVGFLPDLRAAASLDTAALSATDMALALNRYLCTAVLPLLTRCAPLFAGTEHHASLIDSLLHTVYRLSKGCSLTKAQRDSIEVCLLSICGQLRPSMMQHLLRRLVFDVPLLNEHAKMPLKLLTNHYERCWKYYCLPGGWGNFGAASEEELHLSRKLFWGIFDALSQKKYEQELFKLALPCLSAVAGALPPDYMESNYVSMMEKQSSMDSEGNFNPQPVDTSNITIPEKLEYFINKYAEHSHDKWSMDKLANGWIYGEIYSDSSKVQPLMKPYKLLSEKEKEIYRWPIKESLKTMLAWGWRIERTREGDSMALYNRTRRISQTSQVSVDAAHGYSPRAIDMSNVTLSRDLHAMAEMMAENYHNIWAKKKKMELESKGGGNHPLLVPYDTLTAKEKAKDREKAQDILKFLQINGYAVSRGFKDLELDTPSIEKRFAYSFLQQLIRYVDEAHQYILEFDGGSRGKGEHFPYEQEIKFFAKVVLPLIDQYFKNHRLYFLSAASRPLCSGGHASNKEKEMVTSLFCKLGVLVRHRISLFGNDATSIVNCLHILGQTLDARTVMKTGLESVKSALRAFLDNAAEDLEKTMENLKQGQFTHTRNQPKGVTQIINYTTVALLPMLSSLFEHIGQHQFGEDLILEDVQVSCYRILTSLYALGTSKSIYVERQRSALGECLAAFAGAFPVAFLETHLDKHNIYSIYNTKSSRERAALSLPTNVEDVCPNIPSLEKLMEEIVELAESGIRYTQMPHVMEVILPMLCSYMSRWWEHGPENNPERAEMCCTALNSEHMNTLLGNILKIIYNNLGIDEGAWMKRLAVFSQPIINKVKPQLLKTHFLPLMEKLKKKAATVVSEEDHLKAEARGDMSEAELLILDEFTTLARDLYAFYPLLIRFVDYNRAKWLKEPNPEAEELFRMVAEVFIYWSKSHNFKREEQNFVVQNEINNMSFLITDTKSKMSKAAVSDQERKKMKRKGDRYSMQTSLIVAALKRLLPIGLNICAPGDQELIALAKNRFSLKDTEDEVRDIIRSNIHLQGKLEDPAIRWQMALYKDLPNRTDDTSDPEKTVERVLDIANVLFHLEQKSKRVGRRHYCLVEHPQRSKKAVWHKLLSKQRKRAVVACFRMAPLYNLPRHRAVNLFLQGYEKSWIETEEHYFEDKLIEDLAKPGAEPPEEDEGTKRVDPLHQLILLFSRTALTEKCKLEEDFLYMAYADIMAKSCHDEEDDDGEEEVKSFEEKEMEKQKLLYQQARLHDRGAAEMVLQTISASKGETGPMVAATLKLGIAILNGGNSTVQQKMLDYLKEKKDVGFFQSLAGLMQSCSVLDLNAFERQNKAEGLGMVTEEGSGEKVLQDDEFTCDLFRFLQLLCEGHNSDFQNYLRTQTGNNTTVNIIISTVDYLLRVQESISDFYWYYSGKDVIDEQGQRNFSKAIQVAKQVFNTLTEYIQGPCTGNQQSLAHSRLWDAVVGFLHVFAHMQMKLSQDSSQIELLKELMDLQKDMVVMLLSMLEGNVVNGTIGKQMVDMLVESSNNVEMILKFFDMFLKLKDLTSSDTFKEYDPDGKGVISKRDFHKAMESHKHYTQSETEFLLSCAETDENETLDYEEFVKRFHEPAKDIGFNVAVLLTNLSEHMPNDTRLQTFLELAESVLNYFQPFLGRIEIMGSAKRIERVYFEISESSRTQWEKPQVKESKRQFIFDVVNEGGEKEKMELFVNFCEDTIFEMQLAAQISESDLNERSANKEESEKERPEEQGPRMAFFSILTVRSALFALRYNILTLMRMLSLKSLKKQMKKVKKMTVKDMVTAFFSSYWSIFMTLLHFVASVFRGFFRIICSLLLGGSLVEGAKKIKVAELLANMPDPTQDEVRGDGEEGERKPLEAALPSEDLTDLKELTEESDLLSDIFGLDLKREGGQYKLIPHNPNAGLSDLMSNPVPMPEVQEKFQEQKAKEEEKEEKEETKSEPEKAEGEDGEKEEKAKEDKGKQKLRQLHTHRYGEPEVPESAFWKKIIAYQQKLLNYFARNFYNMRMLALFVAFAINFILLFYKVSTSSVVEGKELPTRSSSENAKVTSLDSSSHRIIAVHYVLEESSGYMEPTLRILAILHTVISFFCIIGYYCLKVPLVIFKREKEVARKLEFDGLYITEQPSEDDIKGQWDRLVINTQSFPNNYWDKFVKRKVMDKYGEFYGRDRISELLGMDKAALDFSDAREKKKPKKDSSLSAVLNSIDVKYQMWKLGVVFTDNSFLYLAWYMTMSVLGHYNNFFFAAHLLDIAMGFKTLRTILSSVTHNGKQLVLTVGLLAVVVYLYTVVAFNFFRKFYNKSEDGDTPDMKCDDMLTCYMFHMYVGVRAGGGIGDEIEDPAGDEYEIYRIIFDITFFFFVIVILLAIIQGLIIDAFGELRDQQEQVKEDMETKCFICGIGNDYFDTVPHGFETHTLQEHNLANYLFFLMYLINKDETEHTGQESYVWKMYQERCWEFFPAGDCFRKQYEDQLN
Target sequence in this assay (P68106 whole entry, further chain): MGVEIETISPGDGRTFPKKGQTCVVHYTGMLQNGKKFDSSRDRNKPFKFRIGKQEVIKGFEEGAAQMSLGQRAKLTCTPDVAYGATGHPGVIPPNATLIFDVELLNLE

[3] = Oral bioavailability and pharmacokinetics in blood plasma after oral gavage; format: in vivo, Sprague-Dawley rats; details: Sprague-Dawley; for Cmax: po
Protocol: (§1) Analytical instrument: Waters Acquity Class H UPLC equipped with Waters SQ3100 mass detector.
1). Initial non-terminal assessment of compound oral bioavailability and pharmacokinetics in blood plasma.
Sprague-Dawley rats were dosed via oral gavage (20 mg/kg); blood samples were drawn at 30 min, 1 h, 4 h and 12 h and plasma concentrations were determined via UPLC/MS. The 12-hour exposure (AUC12, Table 2) was determined via trapezoidal integration of the observed concentrations.
(§2) The concentration results were used to estimate PK parameters (i.e. C0, T1/2, Vd, AUCinf) based on noncompartmental distribution and mono-exponential concentration decay. The half-life value thus obtained was also used to estimate the AUCinf for the PO dosing.

[4] = Brain exposure: brain and plasma concentrations 4 h after oral administration; format: in vivo; details: Sprague-Dawley, rat, PO 20 mg/kg; for concentration at 4 h: terminal sampling
Protocol: as §1
Brain and plasma concentrations 4 h after oral administration (corresponding to Tmax in the first experiment) were determined via UPLC/MS, and the corresponding brain-to-plasma ratio values were calculated.

[5] = Pharmacokinetics by intravenous (IV) dosing (tail vein); format: in vivo, rat
Protocol: Additional PK parameters were obtained using IV dosing to complement the oral PK data and to determine absolute oral bioavailability. Compounds were administered via tail vein injection and blood samples were obtained at 30 min, 1 h, 4 h and 12h. The drug concentration in plasma was determined via UPLC/MS.
as §2

[6] = Morning and evening plasma and brain exposure after 1-week dosing in drinking water; format: in vivo; details: rat; for Brain / Plasma: 1 week
RyR2 [7] = biological target: T1, RyR2; experiment: Calstabin2 binding to RyR2 immunoprecipitated from human HD cortex lysate (immunoblot); details: FIG. 1
Protocol: Brain microsomes were prepared from human hippocampus and cortex samples taken from HD patients. Control samples were from patients that were negative in neuropathological diagnoses.
RyR2 was immunoprecipitated from Cortex lysate (+/−various concentrations of Compound 2) with an RyR2 specific antibody (2 μg) in 0.5 ml of a modified RIPA buffer (50 mM Tris-HCl pH 7.2 0.9% NaCl, 5.0 mM NaF, 1.0 mM Na3VO4, 1% Triton-X100, and protease inhibitors) and left overnight at 4° C. The immune complexes were incubated with protein A Sepharose beads at 4° C. for 1 h and the beads are washed three times with RIPA buffer. […] Immunoblots were developed using antibodies against RyR and Calstabin.

RyR = RyR mediated calcium leak from human HD cortex microsomes (Fluo-4, thapsigargin); format: biochemical; details: thapsigargin 3 μM, FIG. 3
Protocol: Human cortex Microsomes (5 μg/ml) were diluted into a 20 mM HEPES buffer (pH 7.2) containing 7 mM NaCl, 1.5 mM MgCl2, 120 mM K-gluconate, 5 mM K-phosphate, 8 mM K-phosphocreatine, 1 μM EGTA and 2 μM CaCl2) mixed with 3 μM Fluo-4 and added to multiple wells of a 96-well plate. Calcium (Ca^2+) loading of the microsomes was initiated by adding 1 mM ATP. After Ca^2+ uptake, 3 μM thapsigargin was added. (A)—Representative traces of Ca^2+ leak from Human cortex microsomes induced by addition of thapsigargin (3 μM). (B)—Ca^2+ leak was calculated as the percent increase in signal after addition of thapsigargin. Data (mean±SEM) analysis was performed by Student t-test (n=2 for each group) **P<0.01.

RyR2 [8] = biological target: T1, RyR2; experiment: biochemical
Target sequence in this assay (Q92736 whole entry): as the sequence (Q92736 whole entry) above
Target sequence in this assay (P68106 whole entry, further chain): as the sequence (P68106 whole entry, further chain) above

[9] = 5 mg/kg/day in drinking water, 7:00AM, 5 mg/kg/day
[10] = 5 mg/kg/day in drinking water, 7:00PM, 5 mg/kg/day
[11] = 20 mg/kg/day in drinking water, 7:00AM, 20 mg/kg/day
[12] = 20 mg/kg/day in drinking water, 7:00PM, 20 mg/kg/day

SMILES: O=C(N1CCNCC1)N1CCSc2cccc(Br)c2C1 [Compound 9, (6-bromo-2,3-dihydrobenzo[f][1,4]thiazepin-4(5H)-yl)(piperazin-1-yl)methanone]
inhibition at 10 µM [1]: 89%

SMILES: O=C(N1CCNCC1)N1CCSc2cccc(Cl)c2C1 [Compound 7, (6-chloro-2,3-dihydrobenzo[f][1,4]thiazepin-4(5H)-yl)(piperazin-1-yl)methanone]
inhibition at 10 µM [1]: 89%

SMILES: O=C(N1CCNCC1)N1CCSc2cc(F)c(F)cc2C1 [Compound 6, (7,8-difluoro-2,3-dihydrobenzo[f][1,4]thiazepin-4(5H)-yl)(piperazin-1-yl)methanone]
inhibition at 10 µM [1]: 71%

SMILES: COc1ccc2c(c1)CN(C)CCS2 [Compound S107, reference compound]
Calstabin2 binding to HD microsomes, concentration dependence (RyR2 [2]): increase Calstabin2 binding to HD microsomes in a concentration dependent manner

SMILES: O=C(N1CCNCC1)N1CCSc2cc(C(F)(F)F)ccc2C1 [Compound 1, piperazin-1-yl(8-(trifluoromethyl)-2,3-dihydrobenzo[f][1,4]thiazepin-4(5H)-yl)methanone]
inhibition at 10 µM [1]: 95 to 96%

SMILES: O=C(N1CCNCC1)N1CCSc2ccc(OC(F)(F)F)cc2C1 [Compound 4, piperazin-1-yl(7-(trifluoromethoxy)-2,3-dihydrobenzo[f][1,4]thiazepin-4(5H)-yl)methanone]
inhibition at 10 µM [1]: 142%

SMILES: O=C(N1CCNCC1)N1CCSc2c(cccc2C(F)(F)F)C1 [Compound 3, piperazin-1-yl(9-(trifluoromethyl)-2,3-dihydrobenzo[f][1,4]thiazepin-4(5H)-yl)methanone]
inhibition at 10 µM [1]: 85%

SMILES: O=C(N1CCNCC1)N1CCSc2cccc(I)c2C1 [Compound 10, (6-iodo-2,3-dihydrobenzo[f][1,4]thiazepin-4(5H)-yl)(piperazin-1-yl)methanone]
inhibition at 10 µM [1]: 74%

SMILES: O=C(N1CCNCC1)N1CCSc2cccc(OC(F)(F)F)c2C1 [Compound 8, piperazin-1-yl(6-(trifluoromethoxy)-2,3-dihydrobenzo[f][1,4]thiazepin-4(5H)-yl)methanone]
inhibition at 10 µM [1]: 80%

AUC(0-inf) ([3]; rat, plasma, oral, 20 mg/kg): 2730 ng·h/mL
Cmax ([3]; rat, plasma, 20 mg/kg, rat plasma, PO 20 mg/kg, Table 4 summary, read-out: Cmax C4 h): 320 ng/mL
Cmax ([3]; rat, plasma, 20 mg/kg, rat plasma, PO 20 mg/kg, read-out: Cmax): 210 ng/mL and 610 nM
Tmax ([3]; rat plasma, PO 20 mg/kg): 4 h
AUC(0-t) ([3]; rat plasma, PO 20 mg/kg, 12 h, trapezoidal, read-out: AUCt (12 h)): 2090 ng·h/mL and 6.06 µM·h
concentration at 4 h ([4]; brain, read-out: Brain C4 h): 2160 ng/g and 6.25 µM
Kp at 4 h ([4]; brain/plasma): 5.1
concentration at 4 h ([4]; plasma, read-out: Plasma C4 h): 420 ng/mL and 1.22 µM
Vd ([5]; plasma, rat, IV bolus 2 mg/kg): 10.9 L/kg
half-life ([5]; plasma, rat, IV bolus 2 mg/kg, read-out: T½ (converted)): 2.77 h
AUC(0-inf) ([5]; rat plasma, IV bolus 2 mg/kg): 736 ng·h/mL
concentration at 30 min ([5]; rat plasma, IV bolus 2 mg/kg, 30 min, read-out: C 1st time (30 min)): 180 ng/mL
F % PO/IV bolus ([5]; rat, PO 20 mg/kg vs IV bolus 2 mg/kg): 37%
Brain [6, 9]: 0.50 ± 0.12 μg/g and 1.44 ± 0.36 μM
Plasma [6, 9]: 0.09 ± 0.03 μg/mL and 0.25 ± 0.08 μM
Brain [6, 10]: 0.12 ± 0.08 μg/g and 0.36 ± 0.22 μM
Plasma [6, 10]: 0.02 ± 0.01 μg/mL and 0.07 ± 0.02 μM
Brain [6, 11]: 3.05 ± 0.71 μg/g and 8.82 ± 2.05 μM
Plasma [6, 11]: 0.42 ± 0.02 μg/mL and 1.22 ± 0.05 μM
Brain [6, 12]: 1.20 ± 0.96 μg/g and 3.48 ± 2.79 μM
Plasma [6, 12]: 0.20 ± 0.12 μg/mL and 0.58 ± 0.36 μM
brain exposure after a week of dosing ([6]; 1 week in drinking water): has brain exposure
pEC50 (RyR2 [8]): 7.00
SMILES: O=C(N1CCNCC1)N1CCSc2ccc(C(F)(F)F)cc2C1 [Compound 2, piperazin-1-yl(7-(trifluoromethyl)-2,3-dihydrobenzo[f][1,4]thiazepin-4(5H)-yl) methanone]
inhibition at 10 µM [1]: 86 to 94%
plasma and tissue exposure levels, morning versus evening ([6]; 1 week in drinking water): higher in the morning than in the evening
Calstabin2/RyR2 binding in HD brain microsome lysates (RyR2 [7]): improves Calstabin2/RyR2 binding; also recorded: improves Calstabin rebinding to RyR2
calcium leak from HD microsomes (RyR): decreases calcium leak from HD microsomes
Calstabin2 binding to HD microsomes, concentration dependence (RyR2 [2]): increase Calstabin2 binding to HD microsomes in a concentration dependent manner

SMILES: O=C(N1CCNCC1)N1CCSc2cccc(C(F)(F)F)c2C1 [Compound 5, piperazin-1-yl(6-(trifluoromethyl)-2,3-dihydrobenzo[f][1,4]thiazepin-4(5H)-yl)methanone]
inhibition at 10 µM [1]: 92%
